Assay results taken from US20160145580A1, “METHOD OF CULTURING CANCER STEM CELLS” (AGENCY FOR SCIENCE, TECHNOLOGY AND RESEARCH, priority 2013, published 2016).
Like-named read-outs stand apart in the source and are kept apart here.

Tested on: MDA-MB-231 cells
Assay: cells
Type: cell-based
Details: Homo sapiens, MDA-MB-231, 48 h
Description: Here, 250 μl of MDA-MB-231 cells in culture medium at cell density of 5.2×10^3 cells/ml was seeded onto the gels (0.2, 0.5, 1.0, 2.5 and 4.0 kPa). The culture medium was changed every 3 days. […] Then, the cells were washed with PBS and the fluorescence intensity was measured using the AlamarBlue cell viability assay as described above. Cell viability in the presence of anti-cancer drugs was normalized to the untreated control groups (0 μM).

Structure (SMILES): COc1cccc2c1C(=O)c1c(O)c3c(c(O)c1C2=O)C[C@@](O)(C(=O)CO)C[C@@H]3O[C@H]1C[C@H](N)[C@H](O)[C@H](C)O1 [doxorubicin]
- viability at 100 µM (read-out: cell viability, 100 μM doxorubicin, 48 hours, 0.2 and 0.5 kPa gels): ~80%
- viability at 100 µM (read-out: cell viability, 100 μM doxorubicin, 48 hours, HA-Tyr gels 2.5 and 4.0 kPa): ~20%
- viability at 100 µM (read-out: cell viability, 100 μM doxorubicin, 48 hours, cell culture plate): ~10%
